Measurements: PMC7413254 (Nature Communications, 2020)
Several values for one entry are separate records, joined by “and”; a condition that tells them apart may be missing. Identical values can stand only once.

Experiments:
non-expressing oocytes [1] = format: cell-based, Xenopus laevis; details: SEM
Summary of the method: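 Oocytes (ten per treatment, ≥4 independent frogs/days) were preloaded by injecting VF-6 in 25 nL ND96 at pH 5.0, 5.5, 6.0 or 7.0, or Na^+-free choline buffer, then uptake run 1.5 h, 27.5 °C, ND96 pH 5.5 by default. Internal concentrations assumed ~400 nL oocyte volume.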

PfCRT [2] = experiment: Potential co-substrates tested for influx of VF-6 via PfCRT into the oocyte; format: cell-based, Plasmodium falciparum; parameters: key: X: Compounds that have been tested as potential co-substrates but are not required for influx of VF-6 via PfCRT into the oocyte
PfCRT [3] = experiment: Influx of VF-6 via PfCRT into the oocyte, solutes tested as potential co-substrates; format: cell-based, Plasmodium falciparum; parameters: key: X: Compounds that have been tested as potential co-substrates but are not required for influx of VF-6 via PfCRT into the oocyte; details: X marks the solute
non-expressing oocytes [4] = experiment: cells; format: cell-based, Xenopus laevis
Summary of the method: (§1)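 Washed oocytes (ten per treatment) were exposed to label in pH 5.5 ND96 for 1.5 h at 27.5 °C. Buffer was then removed, cells rinsed in ice-cold ND96, lysed in SDS and counted.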

PfNT1 = target: T1, PfNT1 (Plasmodium falciparum, UniProt Q8IDM6); experiment: cell-based; format: cell-based; details: SEM
T1 construct: expressed in transfected cells; host or cells: Xenopus laevis oocytes (stage V-VI), cRNA-injected
T1 sequence (Q8IDM6 whole entry): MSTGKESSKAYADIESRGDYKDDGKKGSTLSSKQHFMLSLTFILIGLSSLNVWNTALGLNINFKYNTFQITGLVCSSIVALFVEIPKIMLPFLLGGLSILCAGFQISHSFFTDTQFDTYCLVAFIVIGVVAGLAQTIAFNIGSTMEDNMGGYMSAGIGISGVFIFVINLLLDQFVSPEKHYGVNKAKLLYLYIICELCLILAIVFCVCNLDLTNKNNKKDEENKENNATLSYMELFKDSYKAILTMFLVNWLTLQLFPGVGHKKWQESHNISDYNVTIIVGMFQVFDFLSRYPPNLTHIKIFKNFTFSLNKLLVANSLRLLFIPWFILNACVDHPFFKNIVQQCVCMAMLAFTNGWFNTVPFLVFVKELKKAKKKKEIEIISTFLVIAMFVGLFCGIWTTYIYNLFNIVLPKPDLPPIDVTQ
Summary of the method: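 Transport measured in Xenopus oocytes expressing the transporters, 1.5 h at 27.5 °C in ND96 pH 5.5 unless noted. For trans-stimulation, VF-6 injected in 25 nL ND96 at pH 5.0–7.0 or Na^+-free (choline) buffer; intracellular levels based on ~400 nL oocyte volume. Ten oocytes per treatment, ≥4 experiments.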

PfCRT [5] = experiment: Test of solutes as potential co-substrates for influx of VF-6 via PfCRT into the oocyte; format: cell-based, Plasmodium falciparum; parameters: key: X: Compounds that have been tested as potential co-substrates but are not required for influx of VF-6 via PfCRT into the oocyte; details: X = tested
PfCRT^Ecu1110 = PfCRT^Ecu1110 (Plasmodium falciparum, UniProt Q9N623, A220S/I356L/K76T/N326D); experiment: [3H]CQ uptake into Xenopus oocytes, cis-inhibition by unlabelled solute; format: cell-based; details: for Uptake of [3H]CQ (% PfCRTEcu1110 control), cis-inhibition / Uptake of [3H]CQ (% PfCRTDd2 control), cis-inhibition, PfCRTEcu1110: total [3H]CQ transport; for Uptake of [3H]CQ (% PfCRTEcu1110 control), cis-inhibition: normalised to the oocyte type control; for [3H]CQ transport (% PfCRTEcu1110 control), cis-inhibition, PfCRTEcu1110: PfCRT-mediated component (background subtracted), sheet title says normalised to PfCRTDd2 control; for [3H]CQ transport (% PfCRTEcu1110 control), cis-inhibition, PfCRTEcu1110 / Uptake of [3H]CQ (% PfCRTDd2 control), cis-inhibition, PfCRTEcu1110: mean ± SEM, SEM
Sequence of PfCRT^Ecu1110 (Q9N623 whole entry A220S/I356L/K76T/N326D): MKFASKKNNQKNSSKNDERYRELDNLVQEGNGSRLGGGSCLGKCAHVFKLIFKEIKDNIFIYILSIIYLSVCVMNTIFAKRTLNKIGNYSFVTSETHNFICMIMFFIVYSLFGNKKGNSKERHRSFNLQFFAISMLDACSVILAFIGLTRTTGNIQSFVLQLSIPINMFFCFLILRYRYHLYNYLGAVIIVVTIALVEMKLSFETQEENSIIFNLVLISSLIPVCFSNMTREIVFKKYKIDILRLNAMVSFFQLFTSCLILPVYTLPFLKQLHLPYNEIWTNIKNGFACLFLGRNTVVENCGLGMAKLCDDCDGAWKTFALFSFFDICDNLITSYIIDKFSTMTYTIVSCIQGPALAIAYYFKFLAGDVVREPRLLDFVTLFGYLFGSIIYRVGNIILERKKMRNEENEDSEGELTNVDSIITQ
Summary of the method: as §1

PfCRT^Dd2 = PfCRT^Dd2 (Plasmodium falciparum, UniProt Q9N623, A220S/I356T/K76T/M74I/N326S/N75E/Q271E/R371I); experiment: as above; format: cell-based; details: for PfCRT-mediated [3H]CQ transport, cis-inhibition (% PfCRTDd2 control): PfCRTDd2 oocytes, background [3H]CQ accumulation subtracted, normalised to oocyte type control; for Uptake of [3H]CQ (% PfCRTDd2 control), cis-inhibition, PfCRTDd2: total [3H]CQ transport, mean ± SEM, SEM
Sequence of PfCRT^Dd2 (Q9N623 whole entry A220S/I356T/K76T/M74I/N326S/N75E/Q271E/R371I): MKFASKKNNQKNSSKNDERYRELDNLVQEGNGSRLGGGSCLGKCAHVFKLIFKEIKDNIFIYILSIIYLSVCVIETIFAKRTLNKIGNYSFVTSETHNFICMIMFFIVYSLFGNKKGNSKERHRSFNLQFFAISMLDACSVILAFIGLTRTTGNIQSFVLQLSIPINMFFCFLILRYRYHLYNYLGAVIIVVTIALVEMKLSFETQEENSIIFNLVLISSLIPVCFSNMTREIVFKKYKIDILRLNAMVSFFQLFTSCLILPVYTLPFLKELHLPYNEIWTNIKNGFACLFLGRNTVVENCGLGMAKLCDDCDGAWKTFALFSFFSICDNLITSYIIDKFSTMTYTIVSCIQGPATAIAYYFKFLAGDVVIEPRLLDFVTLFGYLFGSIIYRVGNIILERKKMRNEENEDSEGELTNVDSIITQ
Summary of the method: as §1

PfCRT^3D7 = PfCRT^3D7 (Plasmodium falciparum, UniProt Q8IBZ9); experiment: cell-based; format: cell-based
Sequence of PfCRT^3D7 (Q8IBZ9 59-398): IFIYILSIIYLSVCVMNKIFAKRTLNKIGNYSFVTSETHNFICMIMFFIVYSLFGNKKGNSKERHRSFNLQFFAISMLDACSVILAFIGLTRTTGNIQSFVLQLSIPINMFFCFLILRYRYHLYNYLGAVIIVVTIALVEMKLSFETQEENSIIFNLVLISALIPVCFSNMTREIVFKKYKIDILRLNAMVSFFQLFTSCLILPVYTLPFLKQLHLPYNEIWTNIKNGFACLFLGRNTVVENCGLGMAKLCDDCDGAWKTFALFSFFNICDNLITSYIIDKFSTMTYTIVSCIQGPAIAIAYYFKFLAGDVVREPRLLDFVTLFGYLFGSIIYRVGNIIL
Excerpt: The orientation of PfCRT in the parasite’s DV membrane, and also in the oocyte plasma membrane, is such that its N- and C-termini extend into the cytosol. The oocytes were suspended in a reaction buffer adjusted to pH 5.5 to mimic the pH of the DV lumen[1],[2]. In this scenario, the transport of a substrate via PfCRT from the acidic extracellular solution into the oocyte cytosol[15] is analogous to the parasite’s PfCRT-mediated efflux of a substrate from the acidic DV and into the cytosol. Unless specified otherwise, this is the direction in which substrate transport was measured in the oocyte assays.
Unless specified otherwise, the transport assays were conducted over 1.5 h at 27.5 °C and the reaction buffer was ND96 (96 mM NaCl, 2 mM KCl, 1 mM MgCl2, 1.8 mM CaCl2, 10 mM MES and 10 mM Tris-base) at pH 5.5.
Ten oocytes were washed twice with the relevant ND96 buffer. […] The assay was terminated by removing the reaction buffer and washing the oocytes with ice-cold ND96 buffer. The oocytes were lysed in 10% (w/v) sodium dodecyl sulfate (SDS) and the radioactivity accumulated within each oocyte was measured with a MicroBeta^2 microplate liquid scintillation analyser (PerkinElmer).
At least four independent experiments were performed (on different days and using oocytes from different frogs), and within each experiment measurements were made from ten oocytes per treatment.

Question: `NCC(=O)O` [L-glycine] was tested. Which “Uptake of [3H]CQ (% PfCRTDd2 control), trans-stimulation, non-expressing oocytes” value (non-expressing oocytes [1]) did it give?
Answer: 2.8 ± 0.05 % PfCRTDd2 control

Question: What about the “Tested as potential co-substrate but not required for influx of VF-6 via PfCRT into the oocyte” value (PfCRT [2]) of the same molecule?
Answer: X

Question: What about the “Compounds that have been tested as potential co-substrates but are not required for influx of VF-6 via PfCRT into the oocyte” value (PfCRT [3]) of the same molecule?
Answer: X

Question: And the “Uptake of [3H]CQ (% non-expressing oocyte control), cis-inhibition” value (non-expressing oocytes [4])?
Answer: 100 ± 4.6 % non-expressing oocyte control and 98 ± 7.4 % non-expressing oocyte control and 100 ± 3.5 % non-expressing oocyte control

Question: What about the “Uptake of [3H]CQ (% PfCRTDd2 control), cis-inhibition, non-expressing oocytes” value (non-expressing oocytes [4]; SEM) of the same molecule?
Answer: 3.1 ± 0.09 % PfCRTDd2 control and 2.2 ± 0.03 % PfCRTDd2 control and 2.7 ± 0.03 % PfCRTDd2 control

Question: What about the “Uptake of [3H]CQ (% PfCRTDd2 control), trans-stimulation, PfNT1” value (PfNT1) of the same molecule?
Answer: 2.9 ± 0.03 % PfCRTDd2 control

Question: And the “Tested as potential co-substrate but not required for influx of VF-6 via PfCRT into the oocyte” value (PfCRT [5])?
Answer: X

Question: What about the “Uptake of [3H]CQ (% PfCRTEcu1110 control), cis-inhibition” value (PfCRT^Ecu1110; PfCRTEcu1110 oocytes, [test solute] = 0.5 mM) of the same molecule?
Answer: 95 ± 4.2 % PfCRTEcu1110 control

Question: And the “Uptake of [3H]CQ (% PfCRTEcu1110 control), cis-inhibition” value (PfCRT^Ecu1110; PfCRTEcu1110 oocytes, [test solute] = 1 mM)?
Answer: 100 ± 3.2 % PfCRTEcu1110 control

Question: What about the “PfCRT-mediated [3H]CQ transport, cis-inhibition (% PfCRTEcu1110 control)” value (PfCRT^Ecu1110; [test solute] = 0.5 mM, PfCRTEcu1110 oocytes, background [3H]CQ accumulation subtracted, normalised to oocyte type control) of the same molecule?
Answer: 94 ± 5.1 % PfCRTEcu1110 control

Question: And the “[3H]CQ transport (% PfCRTEcu1110 control), cis-inhibition, PfCRTEcu1110” value (PfCRT^Ecu1110; [test solute] = 0.5 mM)?
Answer: 28 ± 0.5 % PfCRTEcu1110 control

Question: What about the “[3H]CQ transport (% PfCRTEcu1110 control), cis-inhibition, PfCRTEcu1110” value (PfCRT^Ecu1110; [test solute] = 1 mM) of the same molecule?
Answer: 30 ± 0.5 % PfCRTEcu1110 control

Question: What about the “[3H]CQ transport (% PfCRTEcu1110 control), cis-inhibition, PfCRTEcu1110” value (PfCRT^Ecu1110; [test solute] = 2 mM) of the same molecule?
Answer: 29 ± 0.4 % PfCRTEcu1110 control

Question: What about the “Uptake of [3H]CQ (% PfCRTDd2 control), cis-inhibition, PfCRTEcu1110” value (PfCRT^Ecu1110; [test solute] = 0.5 mM) of the same molecule?
Answer: 31 ± 1.5 % PfCRTDd2 control

Question: What about the “Uptake of [3H]CQ (% PfCRTDd2 control), cis-inhibition, PfCRTEcu1110” value (PfCRT^Ecu1110; [test solute] = 1 mM) of the same molecule?
Answer: 33 ± 1.0 % PfCRTDd2 control

Question: What about the “PfCRT-mediated [3H]CQ transport, cis-inhibition (% PfCRTDd2 control)” value (PfCRT^Dd2; [test solute] = 1 mM) of the same molecule?
Answer: 94 ± 3.7 % PfCRTDd2 control

Question: And the “PfCRT-mediated [3H]CQ transport, cis-inhibition (% PfCRTDd2 control)” value (PfCRT^Dd2; [test solute] = 2 mM)?
Answer: 93 ± 3.1 % PfCRTDd2 control

Question: What about the “Uptake of [3H]CQ (% PfCRTDd2 control), cis-inhibition, PfCRTDd2” value (PfCRT^Dd2; [test solute] = 0.5 mM) of the same molecule?
Answer: 97 ± 3.3 % PfCRTDd2 control

Question: What about the “Uptake of [3H]CQ (% PfCRTDd2 control), cis-inhibition, PfCRTDd2” value (PfCRT^Dd2; [test solute] = 2 mM) of the same molecule?
Answer: 95 ± 3.6 % PfCRTDd2 control

Question: What about the “Uptake of [3H]CQ (% PfCRT3D7 control), cis-inhibition” value (PfCRT^3D7) of the same molecule?
Answer: 100 ± 3.6 % PfCRT3D7 control and 100 ± 4.8 % PfCRT3D7 control

Question: What about the “Uptake of [3H]CQ (% PfCRTDd2 control), cis-inhibition, PfCRT3D7” value (PfCRT^3D7; SEM) of the same molecule?
Answer: 3.6 ± 0.07 % PfCRTDd2 control and 2.1 ± 0.01 % PfCRTDd2 control and 2.9 ± 0.04 % PfCRTDd2 control
